# Data published in US6416967B2, “Method of using multicellular particulates to analyze malignant or hyperproliferative tissue” (Precision Therapeutics, Inc., priority 1996, dated 2002).
# Key:
# Assay type in all cases: cell-based
# human breast tumor cells = test: Hormonal therapy microtiter assay, inhibition of cell proliferation (Example 5)
# [1] = system: human ovarian tumor cells; test: Combination chemotherapy microtiter assay, Taxol and carboplatin (Example 4); conditions: then 48 hours, four tumor specimens
# Protocol: Twenty-four (24) hours post-plating, the chemotherapeutic agent Taxol was applied to the wells in the microtiter plates. […] Rows 5 and 9 served as a control. The Taxol exposure time was two hours. Twenty-four hours later, the cells in the wells were exposed to carboplatin for two hours. The tumor cells in the wells were then incubated for another 48 hours.
# Cell number relative to control was determined.
# [2] = system: human brain tumor and human ovarian tumor cells; test: Combined modality drug/radiation microtiter assay (Example 7); conditions: Taxol 0.5-25.0 μM with 2 Gy, or Taxol 5 μM with 1 Gy-6 Gy; through 5 days post-treatment; four tumor specimens
# Protocol: Twenty-four (24) hours post-plating, cells in the microtiter plate wells were exposed to the chemotherapeutic agent Taxol. One set of plates was designed to have escalating Taxol doses with (0.5-25.0 μM) with a fixed radiation dose (2 Gy). A second set of plates was designed to have a fixed Taxol dose (5 μM) with an escalating radiation dose (1 Gy-6 Gy). The cells in the plates were irradiated using a Siemans Stabilipan X-ray machine operating at 250 kVp, 15 mA with a dose rate of 75 rad/minute.
# For each of the two treatment schema, cell number per well was monitored as a function of time through 5 days post-treatment. Cell number relative to controls was determined and survival curves were fit.
smiles,measurement,setting,value
CC/C(=C(\c1ccccc1)c1ccc(OCCN(C)C)cc1)c1ccccc1 [Tamoxifen],inhibition of cell proliferation (cell number relative to control),"human breast tumor cells; 10 nM to 20 μM, six doses, 24 hours exposure, then 72 hours, four breast tumor specimens",two of the four breast specimens tested showed an inhibition of cell proliferation
same,concentration range in which the responses occurred,human breast tumor cells; tested range 10 nM to 20 μM,mid to high
CC(=O)O[C@H]1C(=O)[C@@]2(C)[C@H]([C@H](OC(=O)c3ccccc3)[C@]3(O)C[C@H](OC(=O)[C@H](O)[C@@H](NC(=O)c4ccccc4)c4ccccc4)C(C)=C1C3(C)C)[C@]1(OC(C)=O)CO[C@@H]1C[C@@H]2O [Taxol],"cell number relative to control, escalating Taxol/fixed carboplatin","[1]; Taxol 1.0, 5.0, 25 μM for two hours, carboplatin 200 μM for two hours 24 h later",dose response relationship was observed
same,"cell killing by drug combined with radiation (cell number relative to controls, survival curves)",[2],Both additive and synergistic cell killing
N.N.O=C([O-])C1(C(=O)[O-])CCC1.[Pt+2] [carboplatin],"cell number relative to control, fixed Taxol/escalating carboplatin","[1]; Taxol 5 μM for two hours, carboplatin 50, 200, 1000 μM for two hours 24 h later",dose response relationship was observed
